Data from ChEMBL document CHEMBL5365427, “Discovery and Structural Optimization of Covalent ZAP-70 Kinase Inhibitors against Psoriasis” (J Med Chem, 2023).
Active and inactive are the calls of the source. No cut-off for these calls is given here.

What was measured:
[1] = target: T1, Tyrosine-protein kinase SYK (Homo sapiens, UniProt P43405); assay: Inhibition of SYK (unknown origin) using ULight-TK peptide as substrate at 1 uM incubated for 120 mins in presence of ATP by Lance Ultra Kinase assay relative to control
Splenocyte = assay: Immunosuppressive activity in BALB/c mouse Splenocyte assessed as inhibition of concanavalin A induced T-cell proliferation incubated for 48 hrs by [3H]-thymidine incorporation based beta scintillation counter analysis; type: functional
[2] = target: T1, Tyrosine-protein kinase SYK; assay: Inhibition of SYK (unknown origin) using ULight-TK peptide as substrate incubated for 120 mins in presence of ATP by Lance Ultra Kinase assay
[3] = GSH reactivity of compound at pH 7.4 PBS buffer assessed as half life incubated for 180 min by HPLC-MS analysis; type: physicochemical; conditions: glutathione (GSH) in PBS buffer
[4] = target: T2, Tyrosine-protein kinase ZAP-70 (Homo sapiens, UniProt P43403); assay: Inhibition of ZAP-70 (unknown origin) using ULight-TK peptide as substrate incubated for 120 mins in presence of ATP by Lance Ultra Kinase assay
T2 sequence (P43403 whole entry): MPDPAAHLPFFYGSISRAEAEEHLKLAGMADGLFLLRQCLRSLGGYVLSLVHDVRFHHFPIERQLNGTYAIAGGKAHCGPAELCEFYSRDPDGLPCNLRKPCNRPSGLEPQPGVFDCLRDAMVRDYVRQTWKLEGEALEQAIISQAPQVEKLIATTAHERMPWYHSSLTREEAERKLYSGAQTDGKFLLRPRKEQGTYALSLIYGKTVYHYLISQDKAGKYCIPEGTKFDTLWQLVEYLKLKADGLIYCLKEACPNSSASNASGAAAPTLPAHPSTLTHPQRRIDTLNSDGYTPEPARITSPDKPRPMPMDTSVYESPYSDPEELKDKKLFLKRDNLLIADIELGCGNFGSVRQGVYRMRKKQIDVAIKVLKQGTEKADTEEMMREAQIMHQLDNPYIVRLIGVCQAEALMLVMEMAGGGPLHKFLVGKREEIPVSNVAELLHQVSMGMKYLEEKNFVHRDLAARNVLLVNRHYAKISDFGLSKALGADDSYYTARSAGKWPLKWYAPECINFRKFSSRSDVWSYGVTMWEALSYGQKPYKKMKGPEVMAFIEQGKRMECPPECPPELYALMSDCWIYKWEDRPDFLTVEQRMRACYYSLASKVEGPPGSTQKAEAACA

**Q.** For `C=CC(=O)Nc1cccc(CNc2nc(Nc3cc(OC)cc(OC)c3)c(C(N)=O)c3nccn23)c1Cl`, which inhibition [1] is on record?
**A.** 13.2%

**Q.** For `C=CC(=O)Nc1cc(CNc2nc(Nc3ccc(N4CCCN(C)CC4)c(OC)c3)c(C(N)=O)c3nccn23)ccc1Cl`, which Activity (Splenocyte) is on record?
**A.** Active

**Q.** What about the inhibition [1] of the same molecule?
**A.** 71.2%

**Q.** And the IC50 [2]?
**A.** 1280 nM

**Q.** With `C=CC(=O)Nc1cc(CNc2nc(Nc3cc(OC)cc(OC)c3)c(C(N)=O)c3nccn23)ccc1C(F)(F)F` as the molecule, how does the inhibition [1] read?
**A.** 0.5%

**Q.** Which inhibition [1] does the source give for `C=CC(=O)Nc1cc(CNc2nc(Nc3cc(OC)cc(N4CCOCC4)c3)c(C(N)=O)c3nccn23)ccc1Cl` here?
**A.** 17.7%

**Q.** For `C=CC(=O)Nc1cccc(CN(C)c2nc(Nc3cc(OC)cc(OC)c3)c(C(N)=O)c3nccn23)c1`, which inhibition [1] is on record?
**A.** -5.9%

**Q.** For `C=CC(=O)Nc1cccc(CNc2nc(Nc3cc(OC)cc(OC)c3)c(C(N)=O)c3nccn23)c1`, which half-life [3] is on record?
**A.** 4.23 h

**Q.** And the inhibition [1]?
**A.** 15.4%

**Q.** What does the source list for `C=CC(=O)Nc1cc(CNc2nc(Nc3cc(OC)cc(OC)c3)c(C(N)=O)c3nccn23)ccc1Cl`?
**A.** half-life [3]: 1.35 h; inhibition [1]: 17.5%; IC50 [2]: > 10000 nM

**Q.** Which half-life [3] does the source give for `C=CC(=O)Nc1cc(CNc2nc(Nc3cc(OC)cc(OC)c3)c(C(N)=O)c3nccn23)ccn1` here?
**A.** 0.383 h

**Q.** What about the inhibition [1] of the same molecule?
**A.** 7%

**Q.** With `C=CC(=O)Nc1cc(CNc2nc(Nc3cc(OC)cc(OC)c3)c(C(N)=O)c3nccn23)ccc1C` as the molecule, how does the inhibition [1] read?
**A.** 15.1%

**Q.** For `C=CC(=O)Nc1cc(CNc2nc(Nc3ccc(N4CCN(C)CC4)c(OC)c3)c(C(N)=O)c3nccn23)ccc1Cl`, which Activity (Splenocyte) is on record?
**A.** Active

**Q.** What about the inhibition [1] of the same molecule?
**A.** 84%

**Q.** What about the IC50 [2] of the same molecule?
**A.** 532 nM

**Q.** With `C=CC(=O)Nc1cc(CNc2nc(Nc3ccc(N4CCN(C5COC5)CC4)c(OC)c3)c(C(N)=O)c3nccn23)ccc1Cl` as the molecule, how does the Activity (Splenocyte) read?
**A.** Active

**Q.** And the inhibition [1]?
**A.** 87.5%

**Q.** What about the IC50 [2] of the same molecule?
**A.** 598 nM

**Q.** With `C=CC(=O)Nc1ccc2c(c1)CN(c1nc(Nc3cc(OC)cc(OC)c3)c(C(N)=O)c3nccn13)CC2` as the molecule, how does the inhibition [1] read?
**A.** 22.3%

**Q.** For `C=CC(=O)Nc1cc(Cl)cc(CNc2nc(Nc3cc(OC)cc(OC)c3)c(C(N)=O)c3nccn23)c1`, which inhibition [1] is on record?
**A.** 8.2%

**Q.** With `C=CC(=O)Nc1cc(CNc2nc(Nc3ccc(N4CCOCC4)c(CO)c3)c(C(N)=O)c3nccn23)ccc1Cl` as the molecule, how does the inhibition [1] read?
**A.** 40.2%

**Q.** What about the IC50 [2] of the same molecule?
**A.** 4280 nM

**Q.** Which inhibition [1] does the source give for `C=CC(=O)Nc1cc(CNc2nc(Nc3ccc(N4CCOCC4)c(NC(C)=O)c3)c(C(N)=O)c3nccn23)ccc1Cl` here?
**A.** 18.8%

**Q.** Which inhibition [1] does the source give for `C=CC(=O)Nc1cc(F)cc(CNc2nc(Nc3cc(OC)cc(OC)c3)c(C(N)=O)c3nccn23)c1` here?
**A.** 0.8%

**Q.** What does the source list for `C=CC(=O)Nc1cc(CNc2nc(Nc3ccc(N4CCOCC4)c(OCC)c3)c(C(N)=O)c3nccn23)ccc1Cl`?
**A.** Activity (Splenocyte): Active; inhibition [1]: 82%; IC50 [2]: 641 nM

**Q.** For `C=CC(=O)Nc1ccc(F)c(CNc2nc(Nc3cc(OC)cc(OC)c3)c(C(N)=O)c3nccn23)c1`, which inhibition [1] is on record?
**A.** 6.2%

**Q.** For `C=CC(=O)Nc1cccc(C(C)Nc2nc(Nc3cc(OC)cc(OC)c3)c(C(N)=O)c3nccn23)c1` (stereo unspecified), which inhibition [1] is on record?
**A.** 10.1%

**Q.** Which inhibition [1] does the source give for `C=CC(=O)N1CCCc2c(CNc3nc(Nc4cc(OC)cc(OC)c4)c(C(N)=O)c4nccn34)cccc21` here?
**A.** 10.9%

**Q.** For `COc1cc(Nc2nc(NCc3cccc(NC(=O)CCl)c3)n3ccnc3c2C(N)=O)cc(OC)c1`, which Activity (Splenocyte) is on record?
**A.** Active

**Q.** And the IC50 [4]?
**A.** 44.8 nM

**Q.** What about the inhibition [1] of the same molecule?
**A.** 20.7%

**Q.** And the IC50 [2]?
**A.** > 10000 nM

**Q.** Which inhibition [1] does the source give for `C=CC(=O)Nc1cc(CNc2nc(Nc3ccc(N4CCOCC4)cc3OC)c(C(N)=O)c3nccn23)ccc1Cl` here?
**A.** 3.2%

**Q.** Which inhibition [1] does the source give for `C=CC(=O)Nc1cc(CNc2nc(Nc3ccc(N4CCOCC4)c(OC(C)C)c3)c(C(N)=O)c3nccn23)ccc1Cl` here?
**A.** 27.6%

**Q.** Which results are given for `C=CC(=O)Nc1cc(CNc2nc(Nc3ccc(N4CCOCC4)cc3)c(C(N)=O)c3nccn23)ccc1Cl`?
**A.** inhibition [1]: 61.4%; IC50 [2]: 5530 nM

**Q.** Which inhibition [1] does the source give for `C=CC(=O)Nc1cc(CNc2nc(Nc3cc(OC)cc(OC)c3)c(C(N)=O)c3nccn23)ccc1O` here?
**A.** 9%

**Q.** Which half-life [3] does the source give for `C=CC(=O)Nc1cc(CNc2nc(Nc3cc(OC)cc(OC)c3)c(C(N)=O)c3nccn23)ccc1F` here?
**A.** 1.07 h

**Q.** What about the inhibition [1] of the same molecule?
**A.** 19.8%

**Q.** What about the IC50 [2] of the same molecule?
**A.** > 10000 nM

**Q.** What does the source list for `C=CC(=O)Nc1cccc(CNc2nc(Nc3cc(OC)cc(OC)c3)c(C(N)=O)c3nccn23)c1F`?
**A.** inhibition [1]: 44.7%; IC50 [2]: 7000 nM

**Q.** For `C=CC(=O)Nc1ccc(Cl)c(CNc2nc(Nc3cc(OC)cc(OC)c3)c(C(N)=O)c3nccn23)c1`, which inhibition [1] is on record?
**A.** 6.8%

**Q.** With `C=CC(=O)Nc1cc(CNc2nc(Nc3ccc(N4CCC(O)CC4)c(OC)c3)c(C(N)=O)c3nccn23)ccc1Cl` as the molecule, how does the Activity (Splenocyte) read?
**A.** Active

**Q.** What about the inhibition [1] of the same molecule?
**A.** 47.1%

**Q.** And the IC50 [2]?
**A.** 1290 nM
